Laboratory results published in PubChem BioAssay (NCI).
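Compound exposure: 48 hours, 5 concentrations, 96-well plates. TGI: concentration producing complete growth inhibition.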

Legend:
Assay in all cases: growth of human tumour cells (NCI), 48 h
HCC-2998 colon = test system: HCC-2998 colon
HCT-116 colon = test system: HCT-116 colon
HS 578T breast = test system: HS 578T breast
NCI-H226 lung = test system: NCI-H226 lung
NCI-H460 lung = test system: NCI-H460 lung
NCI-H522 lung = test system: NCI-H522 lung
OVCAR-8 ovarian = test system: OVCAR-8 ovarian
SK-MEL-5 melanoma = test system: SK-MEL-5 melanoma
SNB-19 CNS = test system: SNB-19 CNS
UO-31 renal = test system: UO-31 renal

SMILES | TGI (HCC-2998 colon) [µM] | TGI (HCT-116 colon) [µM] | TGI (HS 578T breast) [µM] | TGI (NCI-H226 lung) [µM] | TGI (NCI-H460 lung) [µM] | TGI (NCI-H522 lung) [µM] | TGI (OVCAR-8 ovarian) [µM] | TGI (SK-MEL-5 melanoma) [µM] | TGI (SNB-19 CNS) [µM] | TGI (UO-31 renal) [µM]
C(=C/c1ccc2nc(-c3ccc(/C=C/C=N/NC4=NCCCN4)cc3)cn2c1)/C=N/NC1=NCCCN1 | > 100 | > 100 | 42.2 | 32.6 | 73.2 | 34.3 | 39 | > 100 | > 100 | > 100
Cc1cc(S(=O)(=O)Nc2nc(N)n(-c3ccccc3)n2)c(S)cc1Cl | > 100 | > 100 | > 100 | > 100 | > 100 | > 100 | > 100 | > 100 | > 100 | > 100
O=C(O)c1cc(/C=C/c2ccc(O)c(O)c2)ccc1O | > 100 | > 100 | > 100 | > 100 | > 100 | > 100 | > 100 | > 100 | > 100 | > 100
CCNc1nc2ccccc2nc1NCC | > 100 | > 100 | > 100 | > 100 | > 100 | > 100 | > 100 | > 100 | > 100 | > 100
COc1c2c(cc3oc(=O)ccc13)OC(C)(C)C=C2 | 46.3 | 40.8 | > 125 | > 125 | 62.2 | 63.9 | 75.1 | 41.8 | > 125 | 73.6
c1ccc2c3c(c(N4CCNCC4)nc2c1)CCCC3 | 4.15 | 27.5 | > 100 | 29.6 | 29.4 | 31.5 | 29.6 | 24.3 | 29.2 | 16.3
O=C(OCc1ccccc1[N+](=O)[O-])N1c2ccccc2[C@@]23O[C@]24CCC[C@H]3C#C/C=C\C#C[C@H]14 | > 100 | > 100 | > 100 | > 100 | > 100 | > 100 | > 100 | > 100 | > 100 | > 100
CCOC(=O)C(C(N)=O)c1nc2cc([N+](=O)[O-])ccc2nc1/C=C(\O)c1ccc(C)cc1 (stereo not given) | 62.7 | 55.4 | 75.1 | > 100 | 58.1 | 47.8 | 40.1 | > 100 | 48.3 | 49
O=C(NCCc1ccc(F)cc1)c1cc(/C=C/c2cc(O)ccc2O)ccc1O | 26 | 3.94 | > 100 | 29.5 | 40 | 4.88 | 13.6 | 6.35 | 20.8 | 3.07
COC(=O)/C=C1\C(=O)N(C(C)=O)c2ccccc21 | 31.4 | 31.2 | 25.8 | 27.8 | 27.1 | 15.6 | 45.6 | 27.8 | > 51.9 | 26.4
CC1CCC(O)/C=C/C(=O)OC(C)C(O)/C=C/C(=O)O1 (stereo not given) | > 100 | > 100 | > 100 | > 100 | > 100 | > 58.6 | > 100 | > 100 | > 100 | > 100
Nc1c2c(nc3ccccc13)-c1ccccc1CCC2 | 12.2 | 20.2 | 43.2 | 28.9 | 18 | 32.4 | 29.1 | 20.1 | 55.4 | 22.3
CCCCc1ccc(Nc2nc(N)c3[nH]cnc3n2)cc1 | 46.4 | 32.3 | 41.6 | 53.2 | 52.2 | 28.8 | 31.8 | 30.9 | 37.8 | 27.1
CO/C=C(/C(=O)OC)c1ccccc1[C@H]1C[C@@H]1c1ccc(OC)cc1 | 42.7 | 44.5 | 84.5 | > 100 | 83 | 25.5 | > 100 | 26.2 | > 100 | > 100
NCCCCN(CCCN)C(=O)OCc1ccccc1 | > 100 | > 100 | > 100 | > 100 | > 100 | > 100 | > 100 | > 100 | > 100 | > 100
O=C1CCCc2ccc3c(c21)CC1(Cc2cc4c(cc2C1)CCCC4)C3 | > 100 | 34.6 | 81.4 | 93.3 | 74.5 | 35.5 | 47.4 | 26.2 | 91.7 | 32.4
CSc1nc(NC2CC2)c2c(n1)Sc1nc3ccccc3n1N=C2 | > 100 | 27.4 | 24.2 | 54.6 | > 100 | > 100 | 85.3 | 49.5 | 72.5 | 44.4
Oc1cccc(-c2cc(=S)ss2)c1 | 32.4 | 33.3 | 36.9 | 41 | 32.8 | 20.4 | 49.9 | 19.7 | 36.4 | 28.5
CN(C)CCNc1ccccn1 | > 100 | > 100 | > 100 | > 100 | > 100 | > 100 | > 100 | > 100 | > 100 | > 100
Clc1ccc2nc3c(c(-c4ccccc4)nn3-c3ccccc3)c(-c3ccccc3)c2c1 | > 100 | > 100 | > 100 | > 100 | > 100 | > 100 | > 100 | > 100 | > 100 | > 100
